Data published in the supplement of paper PMC10307832.

Key:
Assay in all cases: relative viability (nuclei count vs DMSO), 5 days (fraction); higher = more cells survive
[1] = compound: Cc1nc(C(=O)NCC(=O)O)c(O)c2ccc(Oc3ccccc3)cc12 [FG-4592] + Cc1nc(Nc2ncc(C(=O)Nc3c(C)cccc3Cl)s2)cc(N2CCN(CCO)CC2)n1 [Dasatinib] (partner 0.075 µM)
How it was run: (§1)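 Each reported value is a median over duplicate plates. It expresses relative viability: treated-well nuclei count divided by vehicle-well nuclei count. Lung cancer cell lines in 1536-well plates were dosed by pin tool a day after seeding, alone with one drug or with a fixed anchor-drug dose plus five library-drug doses (not always all listed) in √10 steps, and nuclei were counted after 5 days.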

[2] = compound: CC1=CC(=C(N1C2=CC=C(C=C2)Cl)C)C(=O)CN3CCCCC3 [IU1-47] + CC1(C)CCC(c2ccc(Cl)cc2)=C(CN2CCN(c3ccc(C(=O)NS(=O)(=O)c4ccc(N[C@H](CCN5CCOCC5)CSc5ccccc5)c(S(=O)(=O)C(F)(F)F)c4)cc3)CC2)C1 [Navitoclax] (partner 0.5 µM)
How it was run: as §1

[3] = compound: CC1=CC(=C(N1C2=CC=C(C=C2)Cl)C)C(=O)CN3CCCCC3 [IU1-47] + CS(=O)(=O)CCNCc1ccc(-c2ccc3ncnc(Nc4ccc(OCc5cccc(F)c5)c(Cl)c4)c3c2)o1 [Lapatinib] (partner 2 µM)
How it was run: as §1

[4] = compound: Cc1nc(C(=O)NCC(=O)O)c(O)c2ccc(Oc3ccccc3)cc12 [FG-4592] + CCNC(=O)c1noc(-c2cc(C(C)C)c(O)cc2O)c1-c1ccc(CN2CCOCC2)cc1 [Luminespib] (partner 0.01 µM)
How it was run: as §1

Row | Cell Line | relative viability ([1]; first compound 0.08 µM) | relative viability ([1]; first compound 0.253 µM) | relative viability ([1]; first compound 0.8 µM) | relative viability ([1]; first compound 2.53 µM) | relative viability ([1]; first compound 8 µM) | relative viability ([2]; first compound 0.08 µM) | relative viability ([2]; first compound 0.253 µM) | relative viability ([2]; first compound 0.8 µM) | relative viability ([2]; first compound 2.53 µM) | relative viability ([2]; first compound 8 µM) | relative viability ([3]; first compound 0.08 µM) | relative viability ([3]; first compound 0.253 µM) | relative viability ([3]; first compound 0.8 µM) | relative viability ([3]; first compound 2.53 µM) | relative viability ([3]; first compound 8 µM) | relative viability ([4]; first compound 0.08 µM) | relative viability ([4]; first compound 0.253 µM) | relative viability ([4]; first compound 0.8 µM) | relative viability ([4]; first compound 2.53 µM) | relative viability ([4]; first compound 8 µM)
1 | NCI-H838 | 0.271 | 0.262 | 0.226 | 0.27 | 0.207 | 1.25 | 1.21 | 1.32 | 1.27 | 1.15 | 0.922 | 0.889 | 1.23 | 1.01 | 0.888 | 0.324 | 0.179 | 0.263 | 0.386 | 0.272
2 | NCI-H1755 | 0.416 | 0.435 | 0.34 | 0.45 | 0.406 | 1.15 | 1.05 | 1.06 | 1.07 | 1.01 | 1.17 | 1.1 | 1.15 | 1.11 | 0.872 | 0.417 | 0.295 | 0.331 | 0.492 | 0.517
3 | HCC-78 | 0.472 | 0.333 | 0.379 | 0.386 | 0.32 | 0.906 | 0.866 | 0.819 | 0.578 | 0.747 | 0.721 | 0.347 | 1 | 0.717 | 0.712 |  |  |  |  | 
4 | IA-LM |  |  |  |  |  | 0.758 | 1.08 | 0.739 | 1.05 | 0.81 |  | 1.08 | 0.832 | 0.997 | 0.664 |  |  |  |  | 
5 | NCI-H322M | 0.248 | 0.249 | 0.219 | 0.245 | 0.224 | 1.31 | 1.21 | 1.1 | 1.27 | 1.23 | 0.574 | 0.622 | 0.507 | 0.633 | 0.561 | 0.82 | 0.841 | 0.666 | 0.818 | 0.623
6 | NCI-H3122 | 0.737 | 0.824 | 0.877 | 0.983 | 0.563 | 1.02 | 0.966 | 1.02 | 1.01 | 1 | 1.06 | 1.06 | 1.06 | 1.09 | 1.03 | 0.079 | 0.108 | 0.0631 | 0.092 | 0.0857
7 | COR-L23 | 0.467 | 0.47 | 0.504 | 0.446 | 0.409 | 1.1 | 1.1 | 1.21 | 1.16 | 1.22 | 1.19 | 1.12 | 1.07 | 0.92 | 0.892 | 0.757 | 0.524 | 0.645 | 0.611 | 0.593
8 | NCI-H2087 | 0.793 | 0.864 | 0.862 | 0.861 | 0.757 | 1.1 | 0.922 | 1.11 | 0.947 | 0.99 | 1.07 | 1.27 | 1.16 | 0.725 | 0.967 | 0.196 | 0.151 | 0.142 | 0.151 | 0.148
9 | NCI-H650 | 0.464 | 0.491 | 0.393 | 0.407 | 0.392 |  |  |  |  |  | 0.854 | 0.934 | 0.656 | 1.03 | 0.74 | 0.766 | 0.797 | 0.597 | 0.746 | 0.713
